System: Metabolism protein genes
Assay: DNA chip mRNA expression in yeast, metabolism protein genes (Table 7)
Type: cell-based, Saccharomyces cerevisiae S288C
Experimental: Yeast (Saccharomyces cerevisiae S288C (α SUC2mal mel gap2 CUP1)) were incubated at 25° C. on YPD medium (yeast extract 1%, polypepton 2%, glucose 2%). One of toxic chemical substances was added to the cells at logarithmic growth phase, and the cells were further incubated for two hours. Cells were cultured without any chemical substance in the same condition, and were used as control. Concentrations of the chemical substances were defined to inhibit the growth of the yeast but not lead to death.
After completion of the incubation, the culture was centrifuged to collect the cells. To the cells, sodium acetate buffer (50 mM sodium acetate, 10 mM EDTA, 1% SDS) was added, and the mixture was shaken at 65° C. for five minutes, followed by returning to room temperature, and obtaining the supernatant, of which the procedures were repeated two times. To the supernatant, ½ amount of a solution of phenol/chloroform was added, and the mixture was centrifuged to give a supernatant, which was added with an equal amount of chloroform, and the mixture was centrifuged to give a supernatant. To the supernatant, an equal amount of isopropanol containing 0.3 M sodium acetate was added, and the mixture was allowed to stand at room temperature for 30 minutes, after which the mixture was centrifuged to give a sediment of the whole RNAs. Seventy % ethanol was added to the sediment, and the mixture was again centrifuged to give a sediment, which was then dried and dissolved in water. mRNA was isolated from the whole RNAs as followings. In view of the fact that a poly A chain is attached to the 3′ terminus of mRNA, a polynucleotide having a poly T structure which was immobilized on the surface of latex beads was used to trap the mRNA, and then the mRNA was washed and eluted with spine column (Oligotex-dT30<Super>mRNA Purification Kit, Takara). Reverse transcription of the mRNA was conducted with a reverse transcriptase (Super Script II Reverse Transcriptase; catalogue No. 18064-014, GibcoBRL) using fluorescence-labeled nucleotides to give cDNAs that were introduced with Cy3-dUTP or Cy5-dUTP during the reverse transcription.
The labeled cDNAs were dissolved in TE buffer (10mM Tris-HCl/1 mM EDTA, pH8.0), and the solution was dropped on the DNA chip containing the whole genes of yeast (DNA Chip Research Inc. Japan) so that the cDNAs were hybridized on the DNA chip at 65° C. for over 12 hours. The fluoresces intensity of the DNA chip was read with a scanner, and the ratio relative to the fluorescence intensity resulting from the absence of chemical substance was estimated as the following, which is shown in Tables 1 to 9: […]

Q: Which results are given for `CN(C)C(=S)SSC(=S)N(C)C` [(10), Tetramethylthiuram disulfide]?
A: The level of expressed mRNA in the presence of chemical substance/The level of expressed mRNA in the absence of chemical substance (yeast gene YAL012W): 3.9; The level of expressed mRNA in the presence of chemical substance/The level of expressed mRNA in the absence of chemical substance (yeast gene YAL038W): 1.1; The level of expressed mRNA in the presence of chemical substance/The level of expressed mRNA in the absence of chemical substance (yeast gene YAL044C): 0.6; The level of expressed mRNA in the presence of chemical substance/The level of expressed mRNA in the absence of chemical substance (yeast gene YAL054C): 4.1; The level of expressed mRNA in the presence of chemical substance/The level of expressed mRNA in the absence of chemical substance (yeast gene YAR071W): 0.3; The level of expressed mRNA in the presence of chemical substance/The level of expressed mRNA in the absence of chemical substance (yeast gene YBL001C): 0.9; level of expressed mRNA in the presence/in the absence of chemical substance (yeast gene YBR003W): 1.3; level of expressed mRNA in the presence/in the absence of chemical substance (yeast gene YBR011C): 1.0; The level of expressed mRNA in the presence of chemical substance/The level of expressed mRNA in the absence of chemical substance (yeast gene YBR014C): 0.8; level of expressed mRNA in the presence/in the absence of chemical substance (yeast gene YBR020W): 1.1; The level of expressed mRNA in the presence of chemical substance/The level of expressed mRNA in the absence of chemical substance (yeast gene YBR023C): 0.4; The level of expressed mRNA in the presence of chemical substance/The level of expressed mRNA in the absence of chemical substance (yeast gene YBR029C): 1.1; The level of expressed mRNA in the presence of chemical substance/The level of expressed mRNA in the absence of chemical substance (yeast gene YBR035C): 1.5; The level of expressed mRNA in the presence of chemical substance/The level of expressed mRNA in the absence of chemical substance (yeast gene YBR068C): 2.5; The level of expressed mRNA in the presence of chemical substance/The level of expressed mRNA in the absence of chemical substance (yeast gene YBR111C): 1.9; The level of expressed mRNA in the presence of chemical substance/The level of expressed mRNA in the absence of chemical substance (yeast gene YBR183W): 2.0; The level of expressed mRNA in the presence of chemical substance/The level of expressed mRNA in the absence of chemical substance (yeast gene YBR222C): 1.0; The level of expressed mRNA in the presence of chemical substance/The level of expressed mRNA in the absence of chemical substance (yeast gene YBR256C): 6.8; The level of expressed mRNA in the presence of chemical substance/The level of expressed mRNA in the absence of chemical substance (yeast gene YBR296C): 1.8; The level of expressed mRNA in the presence of chemical substance/The level of expressed mRNA in the absence of chemical substance (yeast gene YCL009C): 1.6; The level of expressed mRNA in the presence of chemical substance/The level of expressed mRNA in the absence of chemical substance (yeast gene YCL064C): 5.2; level of expressed mRNA in the presence/in the absence of chemical substance (yeast gene YCR010C): 4.7; level of expressed mRNA in the presence/in the absence of chemical substance (yeast gene YCR034W): 0.2; The level of expressed mRNA in the presence of chemical substance/The level of expressed mRNA in the absence of chemical substance (yeast gene YCR048W): 0.5; The level of expressed mRNA in the presence of chemical substance/The level of expressed mRNA in the absence of chemical substance (yeast gene YCR098C): 2.4; The level of expressed mRNA in the presence of chemical substance/The level of expressed mRNA in the absence of chemical substance (yeast gene YDR019C): 0.7; level of expressed mRNA in the presence/in the absence of chemical substance (yeast gene YDR050C): 1.3; level of expressed mRNA in the presence/in the absence of chemical substance (yeast gene YDR073W): 1.2; level of expressed mRNA in the presence/in the absence of chemical substance (yeast gene YDR123C): 0.6; level of expressed mRNA in the presence/in the absence of chemical substance (yeast gene YDR178W): 0.8; level of expressed mRNA in the presence/in the absence of chemical substance (yeast gene YDR277C): 0.9; level of expressed mRNA in the presence/in the absence of chemical substance (yeast gene YDR284C): 1.0; level of expressed mRNA in the presence/in the absence of chemical substance (yeast gene YDR345C): 1.1; The level of expressed mRNA in the presence of chemical substance/The level of expressed mRNA in the absence of chemical substance (yeast gene YDR380W): 0.3; level of expressed mRNA in the presence/in the absence of chemical substance (yeast gene YDR400W): 1.4; level of expressed mRNA in the presence/in the absence of chemical substance (yeast gene YDR408C): 0.5; level of expressed mRNA in the presence/in the absence of chemical substance (yeast gene YDR483W): 1.1; The level of expressed mRNA in the presence of chemical substance/The level of expressed mRNA in the absence of chemical substance (yeast gene YDR497C): 0.8; The level of expressed mRNA in the presence of chemical substance/The level of expressed mRNA in the absence of chemical substance (yeast gene YDR502C): 0.9; The level of expressed mRNA in the presence of chemical substance/The level of expressed mRNA in the absence of chemical substance (yeast gene YDR516C): 5.2; level of expressed mRNA in the presence/in the absence of chemical substance (yeast gene YEL063C): 1.7; level of expressed mRNA in the presence/in the absence of chemical substance (yeast gene YER015W): 0.9; The level of expressed mRNA in the presence of chemical substance/The level of expressed mRNA in the absence of chemical substance (yeast gene YER026C): 1.5; The level of expressed mRNA in the presence of chemical substance/The level of expressed mRNA in the absence of chemical substance (yeast gene YER053C): 3.9; The level of expressed mRNA in the presence of chemical substance/The level of expressed mRNA in the absence of chemical substance (yeast gene YER069W): 10.4; level of expressed mRNA in the presence/in the absence of chemical substance (yeast gene YER081W): 1.1; The level of expressed mRNA in the presence of chemical substance/The level of expressed mRNA in the absence of chemical substance (yeast gene YER096W): 3.5; level of expressed mRNA in the presence/in the absence of chemical substance (yeast gene YER120W): 0.9; The level of expressed mRNA in the presence of chemical substance/The level of expressed mRNA in the absence of chemical substance (yeast gene YER178W): 1.3; level of expressed mRNA in the presence/in the absence of chemical substance (yeast gene YFL011W): 1.6

Source: patent publication US8192962B2, “Processes for detecting toxic substances” (Daikin Industries, Ltd., priority 2001, dated 2012)
